The source made the active and inactive calls.
How the values were obtained:
[1] = Luminescence Cell-Based Dose Confirmation HTS to Identify Inhibitors of Platelet Dense Granule Release. [Related pubchem assays: 1663 (Primary HTS), 1678 (Summary of Project)]; format: functional
[2] = C. albicans growth with fluconazole, confirmation, fluorescence, retest (AID 2467); format: functional, cell-based
[3] = Luminescence Cell-Based Dose Retest to Confirm Inhibitors of Cancer Stem Cells. [Related pubchem assays (depositor defined):AID2717, AID2721]; format: functional; conditions: Homo sapiens
[4] = NIH-3T3 fibroblast cytotoxicity, dose response, cytotoxicity control, cell-based, fluorescence, Alamar Blue, secondary assay (AID 2327); format: functional;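 further: NIH-3T3 mouse fibroblasts cultured with fluconazole at 8 µg/mL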
[5] = molecular target: T1, Nuclear receptor subfamily 0 group B member 1 (Homo sapiens, UniProt P51843); format: functional, cell-based;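 further: HEK293T cells transfected with SF-1 and DAX-1 plus StAR promoter luciferase reporter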
T1 sequence (P51843 whole entry): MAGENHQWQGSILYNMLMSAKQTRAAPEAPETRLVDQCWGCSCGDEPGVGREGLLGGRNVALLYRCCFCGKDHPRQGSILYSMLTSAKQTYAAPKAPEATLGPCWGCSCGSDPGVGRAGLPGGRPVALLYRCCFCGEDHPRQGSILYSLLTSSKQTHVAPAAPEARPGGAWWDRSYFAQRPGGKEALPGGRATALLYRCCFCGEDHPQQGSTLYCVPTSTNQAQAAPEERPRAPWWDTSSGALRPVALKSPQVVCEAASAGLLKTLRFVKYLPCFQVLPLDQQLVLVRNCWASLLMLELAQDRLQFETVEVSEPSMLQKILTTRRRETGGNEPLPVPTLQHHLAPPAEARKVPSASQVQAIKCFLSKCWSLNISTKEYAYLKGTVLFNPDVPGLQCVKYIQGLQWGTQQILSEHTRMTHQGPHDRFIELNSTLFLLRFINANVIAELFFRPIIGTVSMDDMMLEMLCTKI

cells [6] = format: functional, cell-based
[7] = molecular target: Luciferin 4-monooxygenase (Photinus pyralis, UniProt P08659); assay: firefly luciferase enzyme inhibitors, dose response, biochemical, luminescence (AID 1891)
Sequence of Luciferin 4-monooxygenase (P08659 whole entry): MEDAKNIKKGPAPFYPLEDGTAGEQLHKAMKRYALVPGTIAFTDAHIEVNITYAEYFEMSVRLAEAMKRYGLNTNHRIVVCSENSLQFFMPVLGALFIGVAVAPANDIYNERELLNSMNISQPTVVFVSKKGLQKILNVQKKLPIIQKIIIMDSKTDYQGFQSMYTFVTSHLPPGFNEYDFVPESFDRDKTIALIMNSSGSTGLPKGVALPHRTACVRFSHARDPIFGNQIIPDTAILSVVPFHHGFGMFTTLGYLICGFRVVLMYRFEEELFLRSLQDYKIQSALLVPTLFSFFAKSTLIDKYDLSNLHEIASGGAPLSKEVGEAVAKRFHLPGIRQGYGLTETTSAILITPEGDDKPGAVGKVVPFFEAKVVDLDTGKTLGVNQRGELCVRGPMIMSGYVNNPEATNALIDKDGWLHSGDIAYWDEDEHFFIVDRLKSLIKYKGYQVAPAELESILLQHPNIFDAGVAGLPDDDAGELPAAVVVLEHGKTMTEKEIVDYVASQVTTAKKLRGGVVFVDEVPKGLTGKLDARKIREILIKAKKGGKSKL

Coagulation factor XII = molecular target: T2, Coagulation factor XII (Homo sapiens, UniProt P00748); format: functional;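 further: activated factor XIIa alpha cleaving a fluorogenic AMC peptide substrate; inhibitor potency from loss of enzyme activity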
T2 sequence (P00748 whole entry): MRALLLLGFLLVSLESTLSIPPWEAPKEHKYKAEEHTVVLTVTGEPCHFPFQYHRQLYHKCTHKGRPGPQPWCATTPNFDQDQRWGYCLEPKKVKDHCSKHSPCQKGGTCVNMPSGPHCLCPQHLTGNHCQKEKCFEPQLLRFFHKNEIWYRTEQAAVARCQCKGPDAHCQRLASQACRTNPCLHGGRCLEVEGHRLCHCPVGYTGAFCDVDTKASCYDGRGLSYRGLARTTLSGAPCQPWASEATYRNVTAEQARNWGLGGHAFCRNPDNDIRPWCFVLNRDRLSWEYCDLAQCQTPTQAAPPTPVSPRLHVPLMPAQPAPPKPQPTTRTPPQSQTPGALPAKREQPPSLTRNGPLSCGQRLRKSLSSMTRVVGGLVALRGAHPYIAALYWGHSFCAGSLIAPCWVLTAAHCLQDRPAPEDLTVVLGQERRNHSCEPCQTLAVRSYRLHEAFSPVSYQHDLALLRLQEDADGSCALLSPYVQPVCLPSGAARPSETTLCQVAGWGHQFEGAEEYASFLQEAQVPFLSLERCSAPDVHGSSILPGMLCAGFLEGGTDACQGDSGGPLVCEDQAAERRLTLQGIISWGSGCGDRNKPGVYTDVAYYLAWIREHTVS

Mu-type opioid receptor = Mu-type opioid receptor (Homo sapiens, UniProt P35372); format: functional, cell-based;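 further: U2OS cells with beta-arrestin recruitment to OPRM1 by beta-gal complementation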
Sequence of Mu-type opioid receptor (P35372 whole entry): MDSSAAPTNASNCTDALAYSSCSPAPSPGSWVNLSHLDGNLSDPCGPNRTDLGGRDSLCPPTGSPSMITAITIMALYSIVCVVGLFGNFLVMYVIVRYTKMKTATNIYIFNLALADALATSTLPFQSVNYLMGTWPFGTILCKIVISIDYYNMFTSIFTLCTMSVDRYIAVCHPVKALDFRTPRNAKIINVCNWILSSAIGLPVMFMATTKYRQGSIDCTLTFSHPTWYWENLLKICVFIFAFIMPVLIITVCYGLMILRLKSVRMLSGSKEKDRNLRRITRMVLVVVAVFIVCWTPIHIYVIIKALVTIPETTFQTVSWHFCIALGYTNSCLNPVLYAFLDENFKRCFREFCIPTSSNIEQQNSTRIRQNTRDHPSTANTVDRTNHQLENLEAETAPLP

[8] = molecular target: 5-hydroxytryptamine receptor 2A (Mus musculus, UniProt P35363); format: functional, cell-based;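 further: CHO-K1 cells with tagged receptor and beta-arrestin; agonist potency measured as compound-induced activation of the receptor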
Sequence of 5-hydroxytryptamine receptor 2A (P35363 whole entry): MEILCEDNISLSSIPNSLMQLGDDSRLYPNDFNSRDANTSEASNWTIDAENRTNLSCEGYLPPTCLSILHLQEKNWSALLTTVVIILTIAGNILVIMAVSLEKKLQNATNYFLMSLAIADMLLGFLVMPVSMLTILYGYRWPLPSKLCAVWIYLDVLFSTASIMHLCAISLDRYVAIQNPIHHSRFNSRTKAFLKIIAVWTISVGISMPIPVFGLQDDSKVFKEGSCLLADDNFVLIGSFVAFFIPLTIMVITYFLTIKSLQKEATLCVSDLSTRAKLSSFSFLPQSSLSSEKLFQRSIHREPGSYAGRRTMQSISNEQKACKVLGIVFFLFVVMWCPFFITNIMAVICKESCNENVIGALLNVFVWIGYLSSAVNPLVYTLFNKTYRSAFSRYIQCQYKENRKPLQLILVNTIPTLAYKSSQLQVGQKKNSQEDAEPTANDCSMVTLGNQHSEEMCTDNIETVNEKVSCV

Paired box protein Pax-8 = Paired box protein Pax-8 (Homo sapiens, UniProt Q06710); assay: inhibitors of PAX8-driven TPO luciferase reporter, dose response, RMG-I cells, cherry-pick (AID 687027); format: functional, cell-based;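 further: luciferase reporter driven by Pax8 target thyroperoxidase promoter measured by SteadyGlo luminescence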
Sequence of Paired box protein Pax-8 (Q06710 whole entry): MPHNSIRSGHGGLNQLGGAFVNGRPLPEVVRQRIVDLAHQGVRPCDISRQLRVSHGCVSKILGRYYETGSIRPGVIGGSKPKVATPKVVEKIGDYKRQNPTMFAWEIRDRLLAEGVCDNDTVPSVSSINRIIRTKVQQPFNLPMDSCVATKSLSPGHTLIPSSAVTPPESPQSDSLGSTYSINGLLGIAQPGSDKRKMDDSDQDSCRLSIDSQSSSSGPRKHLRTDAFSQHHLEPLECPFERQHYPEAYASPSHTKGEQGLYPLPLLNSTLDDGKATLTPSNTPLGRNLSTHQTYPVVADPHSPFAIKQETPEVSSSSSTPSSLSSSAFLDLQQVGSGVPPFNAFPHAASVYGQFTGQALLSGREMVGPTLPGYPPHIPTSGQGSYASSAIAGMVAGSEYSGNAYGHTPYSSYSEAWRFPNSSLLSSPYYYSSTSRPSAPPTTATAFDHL

[9] = inhibitors of firefly luciferase expression or activity, dose response, H4 neuroglioma cells, luminescence (AID 1990); format: functional, cell-based
[10] = Luminescence Cell-Based Dose Response HTS to Identify Inhibitors of 5'UTR Stem-Loop Driven Prion Protein mRNA Translation in H4 Neuroglioblastoma Cells. [Related pubchem assays: 1827 (Project Summary), 1813 (Primary HTS)]; format: functional
[11] = ZM109 Env clade C HIV-1 fusion inhibitors, dose response, HeLa effector, CEM target cells, luciferase, cherry-pick (AID 652058); format: functional, cell-based
HEK293 = assay: inhibitors of LMP1-driven NF-kB reporter, dose response, cell-based, HEK293, luciferase, cherry-pick (AID 588343); format: functional; conditions: Homo sapiens
[12] = CEM21 lymphoblast cell cytotoxicity, dose response, cytotoxicity control for viral fusion inhibitor project, CellTiter-Glo luminescence, cherry-picked (AID 652042); format: functional, cell-based;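 further: potency for signal decrease meaning cytotoxicity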
[13] = inhibitors of SNCA 5'UTR-driven reporter translation, confirmation, H4 neuroglioma cells, luminescence (AID 1988); format: functional, cell-based
[14] = inhibitors of HIV Env-driven cell fusion, dose response, cherry-pick (AID 652057); format: functional, cell-based
[15] = inhibitors of clade B AD8 Env fusion, dose response, cell-based, cherry-pick (AID 652062); format: functional;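 further: luciferase signal from cell-cell fusion driven by HIV-1 clade B AD8 Env; potency is for inhibitors of fusion seen as a drop in luminescence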
[16] = off-target signal loss in HeLa-CEM21 co-culture – HeLa F-luc CTL cells, cherry-picked, counter-screen for HIV-1 Env fusion inhibitor project, dose response (AID 652040); format: functional, cell-based;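 further: potency for signal decrease marking cytotoxic or nonspecific inhibition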
INS1 = assay: beta cell apoptosis inhibitors, cytokine rescue, dose response, luminescence, retest (AID 449756); format: functional, cell-based; conditions: Rattus norvegicus;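 further: cell death triggered by IL-1 beta plus TNF-alpha plus IFN-gamma mixture; protective hits raise ATP signal compared with cytokine alone wells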
[17] = microbe, parasite or virus in culture; format: functional; conditions: Mycobacterium tuberculosis
[18] = LGR2 antagonists, dose response, cell-based, HEK293, CRE-luciferase reporter, cherry pick, set 2 (AID 743343); format: functional;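 further: transfected cells were stimulated with diluted bursicon conditioned medium after compound addition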
[19] = Vero E6 cell cytotoxicity, dose response, cytotoxicity control for non-replicating M. tuberculosis project, secondary assay (AID 492998); format: functional, VeroE6; conditions: Vero C1008
cells [20] = format: functional
[21] = HEK293 cell cytotoxicity, dose response, cytotoxicity control, plate reader, cherry-picked samples (AID 743446); format: functional, cell-based
[22] = THP-1 cell cytotoxicity, dose response, cytotoxicity control for non-replicating M. tuberculosis project (AID 489025); format: functional
[23] = MC4R antagonists, dose response, counter-screen for LGR2 antagonist project, cell-based, plate reader, cherry pick (AID 743444); format: functional;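 further: transfected HEK 293 cells stimulated with alpha-MSH peptide; potency of inhibitors of the alpha-MSH evoked signal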
[24] = HepG2 cell cytotoxicity, dose response, cytotoxicity control, plate reader, cherry-pick, antagonist series (AID 743416); format: functional, cell-based
[25] = A549 cell cytotoxicity, dose response, cytotoxicity control, plate reader, cherry-pick, antagonist series (AID 743412); format: functional, cell-based

Question: Which EC50 [1] does the source give for `CC(=O)Oc1ccc2c(=O)c(-c3nc4ccccc4s3)coc2c1` here?
Answer: The EC50 was 3.83 µM (active).

Question: What about the EC50 [2] of the same compound?
Answer: Its EC50 is 3.08 µM (active).

Question: What about the AC50 [3] of the same compound?
Answer: Its AC50 is 6.27 µM (active).

Question: And the EC50 [4]?
Answer: The EC50 was > 150 µM (inactive).

Question: And the IC50 [5]?
Answer: Its IC50 is > 67.5 µM (inactive).

Question: And the IC50 (cells [6])?
Answer: The IC50 was > 67.5 µM (inactive).

Question: What about the EC50 [7] of the same compound?
Answer: The EC50 was 3.63 µM (active).

Question: Which results are given for `O=C(CN1CCN(c2ccccn2)CC1)Nc1ccc(Oc2ccccc2)cc1`?
Answer: IC50 (Coagulation factor XII): > 50 µM (inactive); EC50 (Mu-type opioid receptor): 92.4 µM (inactive); EC50 [8]: 1.17 µM (active)

Question: Which AC50 (Paired box protein Pax-8) does the source give for `CCN(CC)S(=O)(=O)c1cccc(NC(=O)Nc2cccc(C(F)(F)F)c2)c1` here?
Answer: The AC50 was 14.9 µM (active).

Question: What about the EC50 [9] of the same compound?
Answer: Its EC50 is > 120 µM (not active).

Question: What about the AC50 [3] of the same compound?
Answer: The AC50 was 3.36 µM (active).

Question: And the EC50 [10]?
Answer: The EC50 was > 120 µM (not active).

Question: What about the AC50 [11] of the same compound?
Answer: Its AC50 is < 260 nM (active).

Question: What about the AC50 (HEK293) of the same compound?
Answer: Its AC50 is 21.4 µM (active).

Question: And the AC50 [12]?
Answer: The AC50 was 13.6 µM (active).

Question: What about the EC50 [13] of the same compound?
Answer: Its EC50 is > 120 µM (not active).

Question: And the AC50 [14]?
Answer: The AC50 was 542 nM (active).

Question: What about the AC50 [15] of the same compound?
Answer: The AC50 was 10.4 µM (active).

Question: And the AC50 [16]?
Answer: The AC50 was 7.47 µM (active).

Question: What about the AC50 (INS1) of the same compound?
Answer: Its AC50 is 5.03 µM (active).

Question: And the CC50 [17]?
Answer: The CC50 was 13.8 µM (active).

Question: Which AC50 (Paired box protein Pax-8) does the source give for `CCOCC(=O)NC1CCc2cc(OC(=O)COCC)c(OC)c(OC)c2-c2ccc(SC)c(=O)cc21` (stereo not given) here?
Answer: Its AC50 is < 0.26 µM (active).

Question: And the IC50 [5]?
Answer: Its IC50 is 0.244 µM (active).

Question: What about the IC50 (cells [6]) of the same compound?
Answer: Its IC50 is > 67.5 µM (inactive).

Question: With `O=C(O)c1cc(/C=C/c2ccc(N3CCOCC3)cc2)nc2ccccc12` as the compound, how does the AC50 (HEK293) read?
Answer: The AC50 was 3.14 µM (active).

Question: What about the IC50 [5] of the same compound?
Answer: The IC50 was > 67.5 µM (inactive).

Question: What about the IC50 (cells [6]) of the same compound?
Answer: The IC50 was > 67.5 µM (inactive).

Question: With `Cc1cnc(NC(=O)c2ccccn2)s1` as the compound, how does the AC50 [18] read?
Answer: The AC50 was 7.9 µM (active).

Question: And the EC50 [1]?
Answer: Its EC50 is 18 µM (active).

Question: And the CC50 [19]?
Answer: Its CC50 is > 20 µM (active).

Question: And the IC50 (cells [20])?
Answer: The IC50 was 4.77 µM (active).

Question: And the AC50 [21]?
Answer: Its AC50 is 30.8 µM (active).

Question: And the AC50 (HEK293)?
Answer: Its AC50 is 8.48 µM (active).

Question: And the CC50 [22]?
Answer: The CC50 was > 40 µM (active).

Question: What about the AC50 [23] of the same compound?
Answer: Its AC50 is 6.72 µM (active).

Question: And the AC50 [24]?
Answer: The AC50 was 27.8 µM (active).

Question: What about the AC50 [25] of the same compound?
Answer: Its AC50 is 24 µM (active).

Question: And the EC50 [7]?
Answer: Its EC50 is 34.9 µM (active).
